Test results reported in patent US11674136B2, “DNA-templated macrocycle library” (President and Fellows of Harvard College, priority 2018, dated 2023).
“Also recorded” adds a separate entry of the source.

Biological target: T1, Recombinant human N-His6-IDE42-1019 (Homo sapiens, UniProt P14735)
T1 construct: Recombinant human N-His6-IDE42-1019(R&D Systems); His6 (N); purchased R&D Systems
T1 sequence (P14735 42-1019): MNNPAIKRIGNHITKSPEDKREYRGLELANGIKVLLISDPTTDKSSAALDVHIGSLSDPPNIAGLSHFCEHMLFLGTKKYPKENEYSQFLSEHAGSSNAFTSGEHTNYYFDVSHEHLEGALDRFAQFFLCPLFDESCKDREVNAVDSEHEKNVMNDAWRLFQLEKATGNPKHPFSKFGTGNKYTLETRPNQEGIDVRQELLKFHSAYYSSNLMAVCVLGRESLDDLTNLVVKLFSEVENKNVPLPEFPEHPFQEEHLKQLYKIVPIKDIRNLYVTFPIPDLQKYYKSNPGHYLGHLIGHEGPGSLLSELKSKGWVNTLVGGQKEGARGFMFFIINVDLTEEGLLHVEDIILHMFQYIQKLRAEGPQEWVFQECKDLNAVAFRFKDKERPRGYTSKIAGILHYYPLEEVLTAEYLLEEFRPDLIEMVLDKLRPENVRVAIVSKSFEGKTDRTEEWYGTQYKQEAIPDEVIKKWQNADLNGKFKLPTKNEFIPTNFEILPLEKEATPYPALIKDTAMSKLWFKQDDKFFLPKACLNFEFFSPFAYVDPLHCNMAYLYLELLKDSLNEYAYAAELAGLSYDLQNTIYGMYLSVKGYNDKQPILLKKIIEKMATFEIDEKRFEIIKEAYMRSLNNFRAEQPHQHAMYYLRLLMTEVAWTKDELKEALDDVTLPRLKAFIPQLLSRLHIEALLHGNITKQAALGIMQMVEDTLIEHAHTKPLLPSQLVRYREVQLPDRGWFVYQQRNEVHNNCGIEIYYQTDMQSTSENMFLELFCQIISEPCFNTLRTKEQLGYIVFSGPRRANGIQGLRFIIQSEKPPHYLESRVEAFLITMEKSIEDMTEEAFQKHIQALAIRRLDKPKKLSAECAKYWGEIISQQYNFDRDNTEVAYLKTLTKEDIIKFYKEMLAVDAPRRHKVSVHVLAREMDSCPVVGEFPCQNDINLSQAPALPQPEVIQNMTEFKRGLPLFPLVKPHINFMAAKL
Assay: IDE inhibition assay with fluorogenic decapeptide substrate Mca-RPPGFSAFK(Dnp)-OH
Format: biochemical
Conditions: fluorogenic decapeptide cleavage assay; for IC50: DNA-free macrocycle; for IDE inhibition, potency in words: comparison with reference inhibitors
Method: Recombinant human N-His6-IDE42-1019(R&D Systems) was assayed using the fluorophore/quencher-tagged peptide substrate Mca-RPPGFSAFK(Dnp)-OH (R&D) according to the manufacturer's instructions and using the recommended buffer 50 mM Tris, pH 7.5, 1 M NaCl (fluorophore Mca=(7-methoxycourmarin-4-yl)acetyl and quencher Dnp=2,4-dinitrophenyl). The enzyme mixture (48 μL) was transferred to a 96-well plate and combined with 2 μL of inhibitor in DMSO solutions, as 3-fold dilution series. The mixtures were allowed to equilibrate for 5 minutes and the enzymatic reaction was started by addition of substrate peptide in assay buffer (50 μL), immediately mixed by orbital shaking, and monitored on a fluorescence plate reader (excitation at 320 nm, emission at 405 nm). […] Inhibitor 6bK was used as a positive control in each assay, and error bars correspond to the standard error.

IC50	SMILES	IDE inhibition, potency in words
30000 nM	NCCOCCNC(=O)C1Cc2ccccc2CNC(=O)CC(Cc2ccccc2)NC(=O)C(Cc2ccco2)NC(=O)CN2CCN(CC2)C(=O)C=CC(=O)N1 (stereo not drawn) [cis-CODVV]	–
40 nM	NCCOCCNC(=O)C1CCNC(=O)C=CC(=O)NC(Cc2ccccc2C(F)(F)F)C(=O)NC(CC2CCCCC2)C(=O)NC(Cc2ccc(C(=O)c3ccccc3)cc2)C(=O)N1 (stereo not drawn) [cis-DJIR]	equipotent to the structurally similar trans-6bK and trans-6bA macrocycles; also recorded: at least as potent that 6bK
50 nM	CC1NC(=O)C=CC(=O)NC(C(=O)NCCOCCN)Cc2cccc(c2)CNC(=O)C(Cc2ccc(C(=O)c3ccccc3)cc2)NC(=O)C(CC2CCCCC2)NC1=O (stereo not drawn) [trans-DJPM]	equipotent to the structurally similar trans-6bK and trans-6bA macrocycles; also recorded: comparable in potency to our previously optimized 20-membered inhibitor 6bK; also recorded: equipotent to the previously optimized IDE inhibitor 6bK
